Results on 19 molecules are retold here after patent US11926600B2, “Sulfonylureas and sulfonylthioureas as NLRP3 inhibitors” (Inflazome Limited, priority 2017, dated 2024).

Assay [1] concerns the target T1, NLRP3 (Homo sapiens, UniProt Q96P20). In words: THP-1 cells pyroptosis assay. Also noted: Seed THP-1 cells (25,000 cells/well) containing 1.0 μg/ml LPS; host or cells: THP-1 cells, LPS-primed, nigericin-stimulated. It counts as cell-based. Particulars: LPS 1 μg/ml, nigericin 5 μM, resazurin readout. As for the experimental part:
THP-1 Cells: Culture and Preparation
The cells were routinely passaged and grown to confluency (˜10^6 cells/ml). On the day of the experiment, THP-1 cells were harvested and resuspended into RPMI medium (without FBS). The cells were then counted and viability (>90%) checked by Trypan blue (Sigma #T8154). […] To this diluted cell solution was added LPS (Sigma #L4524) to give a 1 μg/ml Final Assay Concentration (FAC). 40 μl of the final preparation was aliquoted into each well of a 96-well plate. The plate thus prepared was used for compound screening.
THP-1 Cells Pyroptosis Assay
The following method step-by-step assay was followed for compound screening. • 1. […] Incubate for 3 hrs at 37° C. in 5% CO2 • 4. Add 5 μl nigericin (Sigma #N7143) (FAC 5 μM) to all wells • 5. Incubate for 1 hr at 37° C. and 5% CO2 • 6. At the end of the incubation period, spin plates at 300×g for 3 mins and remove supernatant • 7. Then add 50 μl of resazurin (Sigma #R7017) (FAC 100 μM resazurin in RPMI medium without FBS) and incubate plates for a further 1-2 hrs at 37° C. and 5% CO2 • 8. […] IC50 data is fitted to a non-linear regression equation (log inhibitor vs response-variable slope 4-parameters)
On the technique in general: Alamar Blue is a resazurin reagent that responds to reducing activity.

Assay [2] concerns the target T1, NLRP3. In words: Human whole blood IL1β release assay. As to conditions: LPS 1 μg/ml, nigericin 10 μM, IL-1β AlphaLisa, read-out: HWB IC50. Also on record: Plate out 80 μl of whole blood containing 1 μg/ml of LPS; from tissue; host or cells: human whole blood from healthy donors, LPS-primed, nigericin-stimulated. It counts as cell-based. The method, then: Human Whole Blood IL1β Release Assay
For systemic delivery, the ability to inhibit NLRP3 when the compounds are present within the bloodstream is of great importance. For this reason, the NLRP3 inhibitory activity of a number of compounds in human whole blood was investigated in accordance with the following protocol.
Human whole blood in Li-heparin tubes was obtained from healthy donors from a volunteer donor panel. • 1. Plate out 80 μl of whole blood containing 1 μg/ml of LPS in 96-well, clear bottom cell culture plate (Corning #3585) • 2. Add 10 μl compound (8 points half-log dilution with 10 μM top dose) or vehicle (DMSO 0.1% FAC) to the appropriate wells • 3. Incubate for 3 hrs at 37° C. 5% CO2 • 4. Add 10 μl Nigericin (Sigma #N7143) (10 μM FAC) to all wells • 5. Incubate for 1 hr at 37° C. 5% CO2 • 6. At the end of the incubation period, spin plates at 300×g for 5 mins to pellet cells and remove 20 μl of supernatant and add to 96-well v-bottom plates for IL-1β analysis (note: these plates containing the supernatants can be stored at −80° C. to be analysed at a later date) • 7. IL-1β was measured according to the manufacturer protocol (Perkin Elmer-AlphaLisa IL-1 Kit AL220F-5000) • 8. IC50 data is fitted to a non-linear regression equation (log inhibitor vs response-variable slope 4-parameters)
(In general: In Alpha technology, singlet oxygen from a donor bead excites a nearby acceptor bead.)

Molecules are shown by their SMILES. A value given as a limit tells only on which side of the number the result lay.

T1 sequence (Q96P20 whole entry): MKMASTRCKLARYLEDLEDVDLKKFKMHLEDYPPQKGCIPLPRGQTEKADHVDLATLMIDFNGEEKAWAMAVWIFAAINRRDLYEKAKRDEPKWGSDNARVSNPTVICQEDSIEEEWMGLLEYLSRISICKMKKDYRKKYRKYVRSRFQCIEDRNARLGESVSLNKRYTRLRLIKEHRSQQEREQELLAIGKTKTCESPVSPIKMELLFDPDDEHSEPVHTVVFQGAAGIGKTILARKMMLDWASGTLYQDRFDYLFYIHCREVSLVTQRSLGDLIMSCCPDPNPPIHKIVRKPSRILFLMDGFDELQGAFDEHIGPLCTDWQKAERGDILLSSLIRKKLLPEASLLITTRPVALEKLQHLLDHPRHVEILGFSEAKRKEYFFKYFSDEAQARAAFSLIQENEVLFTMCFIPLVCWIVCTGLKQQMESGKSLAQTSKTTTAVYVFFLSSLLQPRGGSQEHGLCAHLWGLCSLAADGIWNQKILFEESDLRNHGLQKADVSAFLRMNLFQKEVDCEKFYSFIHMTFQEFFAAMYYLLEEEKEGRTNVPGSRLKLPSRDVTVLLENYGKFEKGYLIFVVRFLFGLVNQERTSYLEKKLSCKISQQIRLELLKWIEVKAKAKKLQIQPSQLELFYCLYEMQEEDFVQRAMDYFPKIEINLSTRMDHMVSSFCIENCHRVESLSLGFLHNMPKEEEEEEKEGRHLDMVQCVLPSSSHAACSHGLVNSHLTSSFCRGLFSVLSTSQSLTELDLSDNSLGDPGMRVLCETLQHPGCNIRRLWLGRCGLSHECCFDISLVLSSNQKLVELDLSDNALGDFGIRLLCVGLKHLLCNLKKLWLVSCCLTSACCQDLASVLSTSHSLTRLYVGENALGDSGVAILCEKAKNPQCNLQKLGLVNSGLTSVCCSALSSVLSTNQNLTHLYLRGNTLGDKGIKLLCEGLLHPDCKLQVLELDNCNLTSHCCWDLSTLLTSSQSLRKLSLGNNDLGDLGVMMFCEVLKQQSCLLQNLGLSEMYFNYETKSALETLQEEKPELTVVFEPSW

Usually IC50 stands for the concentration that gives 50% inhibition. Turning to `CC(C)c1nc(S(=O)(=O)NC(=O)Nc2c3c(cc4c2CCC4)CCC3)cn1C` [Example 13, N-((1,2,3,5,6,7-Hexahydro-s-indacen-4-yl)carbamoyl)-2-isopropyl-1-methyl-1H-imidazole-4-sulfonamide], the IC50 against NLRP3 [1] was 0.64 to 2.56 µM; at NLRP3 [2], 3.2 to 10 µM.
`Cn1cnc(S(=O)(=O)NC(=O)Nc2c3c(cc4c2CCC4)CCC3)c1` [Example 12, N-((1,2,3,5,6,7-Hexahydro-s-indacen-4-yl)carbamoyl)-1-methyl-1H-imidazole-4-sulfonamide] gave an IC50 on NLRP3 [1] of 0.64 to 2.56 µM.
On to `Cc1nc(S(=O)(=O)NC(=O)Nc2c3c(cc4c2CCC4)CCC3)cn1CC1CCCO1` (stereo not drawn) [Example 16, N-((1,2,3,5,6,7-Hexahydro-s-indacen-4-yl)carbamoyl)-2-methyl-1-((tetrahydrofuran-2-yl)methyl)-1H-imidazole-4-sulfonamide], for which the IC50 on NLRP3 [1] fell in the range of 0.16 to 0.64 µM; at NLRP3 [2], 0.8 to 1.6 µM.
For the molecule `C[C@H](O)Cn1cnc(S(=O)(=O)NC(=O)Nc2c3c(cc4c2CCC4)CCC3)c1` [Example 2, (S)—N-((1,2,3,5,6,7-Hexahydro-s-indacen-4-yl)carbamoyl)-1-(2-hydroxypropyl)-1H-imidazole-4-sulfonamide], the 50% inhibitory concentration (IC50) at NLRP3 [1] lay in the range of 0.16 to 0.64 µM; on NLRP3 [2] it was 0.8 to 1.6 µM.
On the same counts, the results for `Cc1nc(S(=O)(=O)NC(=O)Nc2c3c(cc4c2CCC4)CCC3)cn1CCO` [Example 17, N-((1,2,3,5,6,7-Hexahydro-s-indacen-4-yl)carbamoyl)-1-(2-hydroxyethyl)-2-methyl-1H-imidazole-4-sulfonamide] are 0.64 to 2.56 µM and 0.8 to 1.6 µM.
On to `COc1cc(-c2ccc3c(c2NC(=O)NS(=O)(=O)c2cn(C(C)C)cn2)CCC3)ccn1` [Example 21], for which the results for the IC50 against NLRP3 [1] and on NLRP3 [2] were 0.04 to 0.16 µM and 0.4 to 0.8 µM, respectively.
On the same counts, the results for `C[C@@H](O)Cn1cnc(S(=O)(=O)NC(=O)Nc2c3c(cc4c2CCC4)CCC3)c1` [Example 1, (R)—N-((1,2,3,5,6,7-Hexahydro-s-indacen-4-yl)carbamoyl)-1-(2-hydroxypropyl)-1H-imidazole-4-sulfonamide] are 0.16 to 0.64 µM and 0.8 to 1.6 µM.
On the same counts, the results for `COc1cc(-c2cc(F)cc(C(C)C)c2NC(=O)NS(=O)(=O)c2cn(C(C)C)cn2)ccn1` [Example 5, N-((4-Fluoro-2-isopropyl-6-(2-methoxypyridin-4-yl)phenyl)carbamoyl)-1-isopropyl-1H-imidazole-4-sulfonamide] are 0.04 to 0.16 µM and 0.8 to 1.6 µM.
In the case of `CN(C)Cc1c(S(=O)(=O)NC(=O)Nc2c3c(cc4c2CCC4)CCC3)ncn1C` [Example 19], the IC50 lay in the range of 0.16 to 0.64 µM against NLRP3 [1] and 0.8 to 1.6 µM at NLRP3 [2].
Molecule `CC(C)c1cccc(C(C)C)c1NC(=O)NS(=O)(=O)c1cn(C(C)C)cn1` [Example 14, N-((2,6-Diisopropylphenyl)carbamoyl)-1-isopropyl-1H-imidazole-4-sulfonamide] came in with a concentration for half-maximal inhibition (IC50) against NLRP3 [1] of 2.56 to 10 µM.
With `CC(C)c1ncc(S(=O)(=O)NC(=O)Nc2c3c(cc4c2CCC4)CCC3)n1C` [Example 8, N-((1,2,3,5,6,7-Hexahydro-s-indacen-4-yl)carbamoyl)-2-isopropyl-1-methyl-1H-imidazole-5-sulfonamide], the IC50 at NLRP3 [1] lay within 0.16 to 0.64 µM.
As to `CN(C)CCn1cnc(S(=O)(=O)NC(=O)Nc2c3c(cc4c2CCC4)CCC3)c1` [Example 3, 1-(2-(Dimethylamino)ethyl)-N-((1,2,3,5,6,7-hexahydro-s-indacen-4-yl)carbamoyl)-1H-imidazole-4-sulfonamide], the half-maximal inhibitory concentration (IC50) was 0.64 to 2.56 µM against NLRP3 [1] and 1.6 to 3.2 µM on NLRP3 [2].
For the molecule `CC(C)c1cc(F)cc(-c2cnn(C)c2)c1NC(=O)NS(=O)(=O)c1cn(C(C)C)cn1` [Example 10, N-((4-Fluoro-2-isopropyl-6-(i-methyl-1H-pyrazol-4-yl)phenyl)carbamoyl)-1-isopropyl-1H-imidazole-4-sulfonamide], the half-inhibitory concentration (IC50) against NLRP3 [1] lay within 2.56 to 10 µM.
Still for that read-out and setting: to `Cn1ccnc1S(=O)(=O)NC(=O)Nc1c2c(cc3c1CCC3)CCC2` [Example 9, N-((1,2,3,5,6,7-Hexahydro-s-indacen-4-yl)carbamoyl)-1-methyl-1H-imidazole-2-sulfonamide] belongs 2.56 to 10 µM.
As for `Cc1nc(S(=O)(=O)NC(=O)Nc2c3c(cc4c2CCC4)CCC3)cn1C(C)C` [Example 7, N-((1,2,3,5,6,7-Hexahydro-s-indacen-4-yl)carbamoyl)-1-isopropyl-2-methyl-1H-imidazole-4-sulfonamide], the results for the IC50 against NLRP3 [1] and at NLRP3 [2] were 0.16 to 0.64 µM and 1.6 to 3.2 µM, respectively.
`CC(C)c1cc(F)cc(-c2ccnc(C#N)c2)c1NC(=O)NS(=O)(=O)c1cn(C(C)C)cn1` [Example 4, N-((2-(2-Cyanopyridin-4-yl)-4-fluoro-6-isopropylphenyl)carbamoyl)-1-isopropyl-1H-imidazole-4-sulfonamide]: the IC50 lay within 0.16 to 0.64 µM against NLRP3 [1] and 0.4 to 0.8 µM at NLRP3 [2].
The like results for `CCn1cc(S(=O)(=O)NC(=O)Nc2c3c(cc4c2CCC4)CCC3)nc1C` [Example 6, 1-Ethyl-N-((1,2,3,5,6,7-hexahydro-s-indacen-4-yl)carbamoyl)-2-methyl-1H-imidazole-4-sulfonamide] were, in that order, 0.16 to 0.64 µM and 3.2 to 10 µM.
The like results for `CC(C)n1cnc(S(=O)(=O)NC(=O)Nc2c3c(cc4c2CCC4)CCC3)c1` [Example 15, N-((1,2,3,5,6,7-Hexahydro-s-indacen-4-yl)carbamoyl)-1-isopropyl-1H-imidazole-4-sulfonamide] were, in that order, 0.16 to 0.64 µM and 1.6 to 3.2 µM.
Take `CC(C)n1cnc(S(=O)(=O)NC(=O)Nc2c(-c3ccnc(C#N)c3)ccc3c2CCC3)c1` [Example 20]: the half-maximal inhibitory concentration (IC50) is less than 0.04 µM against NLRP3 [1] and less than 0.4 µM on NLRP3 [2].
